The target of assay [1] is human recombinant BACE1 (Homo sapiens (Human), UniProt P56817). The assay is described as follows: In vitro enzymatic BACE1 FRET assay. The assay is classed as biochemical. As to conditions: read-out: IC50 IP (μM) BACE1 enzyme. In outline:
(§1)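 Read-out: dequenched fluorescence, excitation 488 nm, emission 590 nm, after proteolysis of a quenched peptide spanning the BACE cleavage site. Substrate at 50 nM, 1 h incubation, termination by Tris addition to neutral pH.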

For assay [2], the target named is human recombinant BACE2 (Homo sapiens (Human), UniProt Q9Y5Z0). The assay is described as follows: In vitro enzymatic BACE2 FRET assay. The assay is classed as biochemical. The note with it: read-out: IC50 IP (μM) BACE2 enzyme. The method in brief:
as §1

Assay [3] deals with Aβ40 in conditioned medium of cells stably expressing Amyloid Precursor Protein (APP). The assay is described as follows: In vitro BACE-1 cell-based assay (Aβ40 sandwich ELISA). The note with it: read-out: IC50 IP (μM) BACE1 cell. In outline:
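Read-out: time-resolved fluorescence (Streptavidin-Europium) of Aβ40 captured by pAb40 and detected with biotinylated 6E10 from supernatants of APP-stable cells. Cells were exposed to compound for 24 h, 10-point dose response, top dose 100 μM or 10 μM, 0.1% DMSO. IC50 fitted to percent of control.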
Background: An ELISA detects its analyte on a solid surface through an enzyme-linked reagent.

Assay [4] addresses Recombinant Cat D (Homo sapiens (Human), UniProt P07339). In words: In vitro enzymatic Cathepsin D (Cat D) FRET assay. The assay is classed as biochemical. The note with it: read-out: IC50 IP (μM) CatD. In outline:
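Assay pH is 3.5 (0.05 M citrate, 5 mM CHAPS, 10% DMSO final) with Cat D from CHO cells. A 20 nM quenched peptide substrate is cleaved over one hour; the reaction is ended with Tris and read by fluorescence (ex 500, em 580 nm).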

Structures are written as SMILES. Some results are limits rather than exact numbers.

Recombinant Cat D, sequence (P07339 65-412): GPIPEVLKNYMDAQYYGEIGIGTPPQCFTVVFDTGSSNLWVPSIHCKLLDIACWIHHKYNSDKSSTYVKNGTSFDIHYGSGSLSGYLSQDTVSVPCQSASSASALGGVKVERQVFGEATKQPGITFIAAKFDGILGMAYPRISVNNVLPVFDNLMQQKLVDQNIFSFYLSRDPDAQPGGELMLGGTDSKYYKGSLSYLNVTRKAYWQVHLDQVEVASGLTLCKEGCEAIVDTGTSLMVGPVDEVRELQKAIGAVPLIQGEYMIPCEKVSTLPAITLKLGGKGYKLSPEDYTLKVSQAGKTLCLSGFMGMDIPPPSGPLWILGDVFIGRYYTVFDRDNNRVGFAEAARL
human recombinant BACE2, sequence (Q9Y5Z0 63-518): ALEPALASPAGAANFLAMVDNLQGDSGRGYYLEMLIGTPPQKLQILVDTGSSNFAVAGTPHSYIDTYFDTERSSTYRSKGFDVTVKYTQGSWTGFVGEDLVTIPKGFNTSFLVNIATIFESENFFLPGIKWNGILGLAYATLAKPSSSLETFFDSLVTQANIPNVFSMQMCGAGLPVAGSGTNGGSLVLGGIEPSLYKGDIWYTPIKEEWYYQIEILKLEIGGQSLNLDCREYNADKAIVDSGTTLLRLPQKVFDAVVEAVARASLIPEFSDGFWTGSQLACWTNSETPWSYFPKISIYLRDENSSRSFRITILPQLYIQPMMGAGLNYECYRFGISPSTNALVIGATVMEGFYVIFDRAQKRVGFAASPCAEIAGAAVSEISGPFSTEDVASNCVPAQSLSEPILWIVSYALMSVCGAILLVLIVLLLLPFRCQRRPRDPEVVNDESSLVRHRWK
human recombinant BACE1, sequence (P56817 46-501): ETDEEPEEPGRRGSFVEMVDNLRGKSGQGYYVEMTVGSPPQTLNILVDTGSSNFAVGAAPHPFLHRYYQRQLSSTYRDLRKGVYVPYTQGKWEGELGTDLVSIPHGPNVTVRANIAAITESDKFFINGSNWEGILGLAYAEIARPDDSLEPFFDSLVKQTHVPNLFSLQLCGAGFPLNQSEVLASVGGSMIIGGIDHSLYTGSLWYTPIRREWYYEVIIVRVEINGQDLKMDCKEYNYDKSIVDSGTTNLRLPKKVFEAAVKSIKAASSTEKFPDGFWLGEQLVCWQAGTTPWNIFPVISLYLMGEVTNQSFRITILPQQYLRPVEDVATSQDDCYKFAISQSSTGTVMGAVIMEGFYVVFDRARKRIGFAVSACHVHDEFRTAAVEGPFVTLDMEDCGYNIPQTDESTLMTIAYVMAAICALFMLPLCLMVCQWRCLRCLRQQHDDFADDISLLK

For the compound `C#C[C@H](C)Oc1cnc(C(=O)Nc2cc(F)c(F)c([C@@]3(C)N=C(N)S[C@@]4(COC)C[C@H]43)c2)cn1` [Example 1009, N-(3-((1S,5S,6S)-3-amino-1-(methoxymethyl)-5-methyl-2-thia-4-azabicyclo[4.1.0]hept-3-en-5-yl)-4,5-difluorophenyl)-5-(((1S)-1-methyl-2-propyn-1-yl)oxy)-2-pyrazinecarboxamide], the IC50 in assay [1] came to 0.000695 µM; in assay [2], 0.0436 µM; in assay [3], 0.00254 µM; in assay [4] it was 936 µM.

With `COC[C@H](C)Oc1cnc(C(=O)Nc2cc(F)c(F)c([C@@]3(C)N=C(N)S[C@@]4(C#N)C[C@H]43)c2)cn1` [Example 1010, N-(3-((1S,5S,6S)-3-amino-1-cyano-5-methyl-2-thia-4-azabicyclo[4.1.0]hept-3-en-5-yl)-4,5-difluorophenyl)-5-(((S)-1-methoxypropan-2-yl)oxy)pyrazine-2-carboxamide], the half-inhibitory concentration (IC50) was 0.0032 µM in assay [1], 0.0669 µM in assay [2], 0.0309 µM in assay [3] and over 400 µM in assay [4].

Consider `C#C[C@H](C)Oc1cnc(C(=O)Nc2cc(F)c(F)c([C@@]3(C)N=C(N)S[C@@]4(C#N)C[C@H]43)c2)cn1` [Example 1011, N-(3-((1S,5S,6S)-3-amino-1-cyano-5-methyl-2-thia-4-azabicyclo[4.1.0]hept-3-en-5-yl)-4,5-difluorophenyl)-5-(((1S)-1-methyl-2-propyn-1-yl)oxy)-2-pyrazinecarboxamide], for which the IC50 in assay [1] came to 0.000465 µM; in assay [2], 0.00908 µM; in assay [3], 0.00353 µM; in assay [4], 741 µM.

Take `C[C@]1(c2cc(NC(=O)c3ccc(OCC(F)(F)F)cn3)cc(F)c2F)N=C(N)S[C@@]2(C#N)C[C@H]21` [Example 1012, N-(3-((1S,5S,6S)-3-amino-1-cyano-5-methyl-2-thia-4-azabicyclo[4.1.0]hept-3-en-5-yl)-4,5-difluorophenyl)-5-(2,2,2-trifluoroethoxy)-2-pyridinecarboxamide]: the IC50 is 0.00399 µM in assay [1], 0.095 µM in assay [2], 0.111 µM in assay [3] and over 400 µM in assay [4].

Consider `COC[C@]12C[C@H]1[C@@](C)(c1cc(NC(=O)c3cnc(OCc4noc(C)n4)cn3)cc(F)c1F)N=C(N)S2` [Example 1013, N-(3-((1S,5S,6S)-3-amino-1-(methoxymethyl)-5-methyl-2-thia-4-azabicyclo[4.1.0]hept-3-en-5-yl)-4,5-difluorophenyl)-5-((5-methyl-1,2,4-oxadiazol-3-yl)methoxy)-2-pyrazinecarboxamide], for which the half-inhibitory concentration (IC50) worked out at 0.00139 µM in assay [1], 0.0541 µM in assay [2], 0.00144 µM in assay [3] and 959 µM in assay [4].

`COC[C@]12C[C@H]1[C@@](C)(c1cc(NC(=O)c3cnc(OCc4nc(C)no4)cn3)cc(F)c1F)N=C(N)S2` [Example 1014, N-(3-((1S,5S,6S)-3-amino-1-(methoxymethyl)-5-methyl-2-thia-4-azabicyclo[4.1.0]hept-3-en-5-yl)-4,5-difluorophenyl)-5-((3-methyl-1,2,4-oxadiazol-5-yl)methoxy)-2-pyrazinecarboxamide]: the 50% inhibitory concentration (IC50) was determined as 0.000879 µM in assay [1], 0.192 µM in assay [2], 0.00289 µM in assay [3] and 2560 µM in assay [4].

`Cc1cc(OCC(F)(F)F)cnc1C(=O)Nc1cc(F)c(F)c([C@@]2(C)N=C(N)S[C@@]3(C#N)C[C@H]32)c1` [Example 1015, N-(3-((1S,5S,6S)-3-amino-1-cyano-5-methyl-2-thia-4-azabicyclo[4.1.0]hept-3-en-5-yl)-4,5-difluorophenyl)-3-methyl-5-(2,2,2-trifluoroethoxy)-2-pyridinecarboxamide]: the IC50 in assay [1] is 0.00497 µM; in assay [2] it was 0.185 µM; in assay [3], 0.00686 µM; in assay [4], over 400 µM.

For the compound `C#CCOc1cnc(C(=O)Nc2cc(F)c(F)c([C@@]3(C)N=C(N)S[C@@]4(C#N)C[C@H]43)c2)c(C)c1` [Example 1016, N-(3-((1S,5S,6S)-3-amino-1-cyano-5-methyl-2-thia-4-azabicyclo[4.1.0]hept-3-en-5-yl)-4,5-difluorophenyl)-3-methyl-5-(2-propyn-1-yloxy)-2-pyridinecarboxamide], the IC50 is 0.00104 µM in assay [1], 0.00764 µM in assay [2], 0.0119 µM in assay [3] and over 400 µM in assay [4].

For the compound `C#CCOc1cnc(C(=O)Nc2ccc(F)c([C@@]3(C)N=C(N)S[C@@]4(C(=O)NCC)C[C@H]43)c2)cn1` [Example 1017, (1S,5S,6S)-3-amino-N-ethyl-5-(2-fluoro-5-(5-(prop-2-yn-1-yloxy)pyrazine-2-carboxamido)phenyl)-5-methyl-2-thia-4-azabicyclo[4.1.0]hept-3-ene-1-carboxamide], the IC50 was 0.000266 µM in assay [1], 0.00982 µM in assay [2], 0.000106 µM in assay [3] and 22.5 µM in assay [4].

In the case of `CC(C)(CF)NC(=O)[C@]12C[C@H]1[C@@](C)(c1cc(NC(=O)c3ccc(C#N)cn3)ccc1F)N=C(N)S2` [Example 1018, (1S,5S,6S)-3-amino-5-(5-(5-cyanopicolinamido)-2-fluorophenyl)-N-(1-fluoro-2-methylpropan-2-yl)-5-methyl-2-thia-4-azabicyclo[4.1.0]hept-3-ene-1-carboxamide], the IC50 was determined as 0.00116 µM in assay [1], 0.00651 µM in assay [2], 0.00113 µM in assay [3] and 211 µM in assay [4].

`C#C[C@H](C)Oc1cnc(C(=O)Nc2ccc(F)c([C@@]3(C)N=C(N)S[C@@]4(C(=O)NC(C)(C)CF)C[C@H]43)c2)cn1` [Example 1019, (1S,5S,6S)-3-amino-5-(5-(5-((S)-but-3-yn-2-yloxy)pyrazine-2-carboxamido)-2-fluorophenyl)-N-(1-fluoro-2-methylpropan-2-yl)-5-methyl-2-thia-4-azabicyclo[4.1.0]hept-3-ene-1-carboxamide]: the half-maximal inhibitory concentration (IC50) in assay [1] was determined as 0.000937 µM; in assay [2], 0.073 µM; in assay [3] it was 0.00109 µM; in assay [4] it was 271 µM.

Take `COC[C@]12C[C@H]1[C@@](C)(c1cc(NC(=O)c3cnc(OCC4CCC4)cn3)cc(F)c1F)N=C(N)S2` [Example 1020, N-(3-((1S,5S,6S)-3-amino-1-(methoxymethyl)-5-methyl-2-thia-4-azabicyclo[4.1.0]hept-3-en-5-yl)-4,5-difluorophenyl)-5-(cyclobutylmethoxy)pyrazine-2-carboxamide]: the IC50 in assay [1] is 0.00118 µM; in assay [2], 0.0998 µM; in assay [3] it was 0.0248 µM; in assay [4] it was 783 µM.

Turning to `COC[C@]12C[C@H]1[C@@](C)(c1cc(NC(=O)c3cnc(OCC4COC4)cn3)cc(F)c1F)N=C(N)S2` [Example 1022, N-(3-((1S,5S,6S)-3-amino-1-(methoxymethyl)-5-methyl-2-thia-4-azabicyclo[4.1.0]hept-3-en-5-yl)-4,5-difluorophenyl)-5-(3-oxetanylmethoxy)-2-pyrazinecarboxamide], the half-inhibitory concentration (IC50) in assay [1] was 0.00572 µM; in assay [2], 0.579 µM; in assay [3], 0.0331 µM; in assay [4], over 400 µM.

Turning to `COC[C@]12C[C@H]1[C@@](C)(c1cc(NC(=O)c3cnc(OCC(C)OC)cn3)cc(F)c1F)N=C(N)S2` (stereo partly drawn) [Example 1023, N-(3-((1S,5S,6S)-3-amino-1-(methoxymethyl)-5-methyl-2-thia-4-azabicyclo[4.1.0]hept-3-en-5-yl)-4,5-difluorophenyl)-5-(2-methoxypropoxy)pyrazine-2-carboxamide], the IC50 in assay [1] was found to be 0.00319 µM; in assay [2] it was 0.204 µM; in assay [3], 0.0135 µM; in assay [4], 1360 µM.

Take `COC[C@H](C)Oc1cnc(C(=O)Nc2cc(F)c(F)c([C@@]3(C)N=C(N)S[C@@]4(COC)C[C@H]43)c2)cn1` [Example 1024, N-(3-((1S,5S,6S)-3-amino-1-(methoxymethyl)-5-methyl-2-thia-4-azabicyclo[4.1.0]hept-3-en-5-yl)-4,5-difluorophenyl)-5-((1S)-2-methoxy-1-methylethoxy)-2-pyrazinecarboxamide]: the half-maximal inhibitory concentration (IC50) in assay [1] was found to be 0.00214 µM; in assay [2], 0.313 µM; in assay [3], 0.0222 µM; in assay [4] it was 884 µM.

`COC[C@]12C[C@H]1[C@@](C)(c1cc(NC(=O)c3cnc(OCC(F)F)cn3)cc(F)c1F)N=C(N)S2` [Example 1025, N-(3-((1S,5S,6S)-3-amino-1-(methoxymethyl)-5-methyl-2-thia-4-azabicyclo[4.1.0]hept-3-en-5-yl)-4,5-difluorophenyl)-5-(2,2-difluoroethoxy)-2-pyrazinecarboxamide]: the concentration for half-maximal inhibition (IC50) in assay [1] is 0.00169 µM; in assay [2] it was 0.13 µM; in assay [3], 0.0142 µM; in assay [4] it was 1700 µM.

On to `COC[C@]12C[C@H]1[C@@](C)(c1cc(NC(=O)c3cnc(OCC4CC(F)(F)C4)cn3)cc(F)c1F)N=C(N)S2` [Example 1026, N-(3-((1S,5S,6S)-3-amino-1-(methoxymethyl)-5-methyl-2-thia-4-azabicyclo[4.1.0]hept-3-en-5-yl)-4,5-difluorophenyl)-5-((3,3-difluorocyclobutyl)methoxy)-2-pyrazinecarboxamide], for which the IC50 stood at 0.00496 µM in assay [1], 0.115 µM in assay [2], 0.0936 µM in assay [3] and 475 µM in assay [4].

One may read the IC50 as the point on the concentration scale where inhibition reaches its midpoint.
